In assay [1] the test system is mouse FL5.12 cells transfected with Bcl-XL. Kind of assay: FL5.12 cellular assay (cell viability, CellTiter-Glo).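 Further: each EC50 determination derived from duplicate measurements.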 In kind it is cell-based. Conditions: Mus musculus; FL5.12 cells transfected with Bcl-XL, IL-3-depleted, 3% FBS assay media, 24 hours, CellTiter-Glo; read-out: FL5.12 Bcl-xL, - IL3, EC 50.
In assay [2] the target is GST-Bcl-xL (Homo sapiens, UniProt Q07817). Conditions: read-out: TR-FRET binding Bcl-xL Ki.

These results are taken from patent EP2768830B1, “APOPTOSIS-INDUCING AGENTS FOR THE TREATMENT OF CANCER AND IMMUNE AND AUTOIMMUNE DISEASES” (AbbVie Inc., priority 2011, dated 2013).

SMILES strings stand for the structures.

Sequence of GST-Bcl-xL (Q07817 whole entry): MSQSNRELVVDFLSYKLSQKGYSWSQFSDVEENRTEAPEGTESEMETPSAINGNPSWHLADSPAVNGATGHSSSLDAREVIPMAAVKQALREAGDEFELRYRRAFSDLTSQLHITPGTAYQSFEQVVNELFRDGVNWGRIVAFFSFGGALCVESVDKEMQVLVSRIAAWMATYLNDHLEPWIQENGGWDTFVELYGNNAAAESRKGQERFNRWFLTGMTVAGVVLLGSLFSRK

What is called Ki is the equilibrium dissociation constant of an inhibitor or competing ligand from its target. As to `CC(c1ccccc1)n1cc(-c2ccc(N3CCc4cccc(C(=O)Nc5nc6ccccc6s5)c4C3)nc2C(=O)O)cn1` (stereo not drawn) [Example 5, 6-[8-(1,3-benzothiazol-2-ylcarbamoyl)-3,4-dihydroisoquinolin-2(1H)-yl]-3-[1-(1-phenylethyl)-1H-pyrazol-4-yl]pyridine-2-carboxylic acid], in assay [1], the EC50 is 408 nM. In assay [2], the Ki stood at 19 nM.

For the compound `Cc1c(-c2ccc(N3CCc4cccc(C(=O)Nc5nc6ccccc6s5)c4C3)nc2C(=O)O)cnn1CC1(OCCCN2CCOCC2)CCCCCC1` [Example 155, 6-[8-(1,3-benzothiazol-2-ylcarbamoyl)-3,4-dihydroisoquinolin-2(1H)-yl]-3-[5-methyl-1-({1-[3-(morpholin-4-yl)propoxy]cycloheptyl}methyl)-1H-pyrazol-4-yl]pyridine-2-carboxylic acid], the EC50 in assay [1] is 7 nM. In assay [2], the Ki is less than 0.1 nM.

`O=C(Nc1nc2ccccc2s1)c1cccc2c1CN(c1ccc(-c3cnn(CC4CCOCC4)c3)c(C(=O)O)n1)CC2` [Example 50, 6-[8-(1,3-benzothiazol-2-ylcarbamoyl)-3,4-dihydroisoquinolin-2(1H)-yl]-3-[1-(tetrahydro-2H-pyran-4-ylmethyl)-1H-pyrazol-4-yl]pyridine-2-carboxylic acid]: the EC50 in assay [1] was more than 1000 nM. Further, in assay [2], the inhibition constant (Ki) amounted to 99 nM.

Consider `CN(C)CCOc1ccccc1Cn1cc(-c2ccc(N3CCc4cccc(C(=O)Nc5nc6ccccc6s5)c4C3)nc2C(=O)O)cn1` [Example 40, 6-[8-(1,3-benzothiazol-2-ylcarbamoyl)-3,4-dihydroisoquinolin-2(1H)-yl]-3-(1-{2-[2-(dimethylamino)ethoxy]benzyl}-1H-pyrazol-4-yl)pyridine-2-carboxylic acid], for which the EC50 in assay [1] was determined as 570 nM. In addition, the inhibition constant Ki in assay [2] came to 16 nM.

As to `Cc1noc(-c2cccc(Cn3cc(-c4ccc(N5CCc6cccc(C(=O)Nc7nc8ccccc8s7)c6C5)nc4C(=O)O)cn3)c2)n1` [Example 29, 6-[8-(1,3-benzothiazol-2-ylcarbamoyl)-3,4-dihydroisoquinolin-2(1H)-yl]-3-{1-[3-(3-methyl-1,2,4-oxadiazol-5-yl)benzyl]-1H-pyrazol-4-yl}pyridine-2-carboxylic acid], the EC50 in assay [1] was more than 1000 nM. For the same compound, the Ki in assay [2] came to 18 nM.

For the compound `COCCC1(Cn2cc(-c3ccc(N4CCc5cccc(C(=O)Nc6nc7ccccc7s6)c5C4)nc3C(=O)O)cn2)CCCCC1` [Example 88, 6-[8-(1,3-benzothiazol-2-ylcarbamoyl)-3,4-dihydroisoquinolin-2(1H)-yl]-3-(1-{[1-(2-methoxyethyl)cyclohexyl]methyl}-1H-pyrazol-4-yl)pyridine-2-carboxylic acid], the EC50 in assay [1] amounted to 229 nM. In addition, the inhibitory constant (Ki) in assay [2] was 3 nM.

`N#Cc1c(-c2ccc(N3CCc4cccc(C(=O)Nc5nc6ccccc6s5)c4C3)nc2C(=O)O)cccc1N1CCCC1C12CC3CC(CC(C3)C1)C2` (stereo not drawn) [Example 182, 6-[8-(1,3-benzothiazol-2-ylcarbamoyl)-3,4-dihydroisoquinolin-2(1H)-yl]-3-{2-cyano-3-[2-(tricyclo[3.3.1.1^3,7]dec-1-yl)pyrrolidin-1-yl]phenyl}pyridine-2-carboxylic acid]: the EC50 in assay [1] was 6 nM. In assay [2], the Ki is 0.2 nM.

Turning to `COC1(Cn2ncc(-c3ccc(N4CCc5cccc(C(=O)Nc6nc7ccccc7s6)c5C4)nc3C(=O)O)c2C)CCCCC1` [Example 165, 6-[8-(1,3-benzothiazol-2-ylcarbamoyl)-3,4-dihydroisoquinolin-2(1H)-yl]-3-{1-[(1-methoxycyclohexyl)methyl]-5-methyl-1H-pyrazol-4-yl}pyridine-2-carboxylic acid], in assay [1], the EC50 amounted to 9 nM. Further, the Ki in assay [2] was less than 0.1 nM.

As for `O=C(Nc1nc2ccccc2s1)c1cccc2c1CN(c1ccc(-c3cnn(Cc4cccc(C(F)(F)F)c4)c3)c(C(=O)O)n1)CC2` [Example 61, 6-[8-(1,3-benzothiazol-2-ylcarbamoyl)-3,4-dihydroisoquinolin-2(1H)-yl]-3-{1-[3-(trifluoromethyl)benzyl]-1H-pyrazol-4-yl}pyridine-2-carboxylic acid], the EC50 in assay [1] stood at 380 nM. For the same compound, the inhibition constant (Ki) in assay [2] is 11 nM.
